Results taken from PubChem BioAssay AID1996.
Converted amounts (≈) assume the structure as drawn.

Conditions: buffer; pH 7.4; 200.0 µM

SMILES	solubility kinetic [µg/mL]
c1ccc(-c2noc(-c3ccno3)n2)nc1	25.4 (≈ 119 µM)
Cc1nc(SCc2ccc(O)c([N+](=O)[O-])c2)c([N+](=O)[O-])[nH]1	> 46.5
Cn1c(=O)c([N+](=O)[O-])c(-n2cnc3ccccc32)c2ccccc21	> 48
N#Cc1c(C(F)(F)F)cc(=O)[nH]c1SCC(=O)O	> 41.7
O=C(Nc1ccc(C2CC2(Cl)Cl)cc1)c1cccc([N+](=O)[O-])c1 (stereo not given)	< 0.4
CN1C(N)=NC(=O)/C1=C/c1ccc(F)cc1	> 32.9
CN1CCCN(C(=O)COc2ccccc2Br)CC1	> 49.1
CC(C)CN(C(=O)C1CCCC1)C1CCS(=O)(=O)C1 (stereo not given)	> 43.1
CC(C)(CCC(=S)N1CCOCC1)C1CCCCC1	4.1 (≈ 14.5 µM)
O=C(NCc1ccccc1Cl)c1ccc2c(c1)OCO2	> 43.5
Cc1ccc(-c2c(C)sc3nc[nH]c(=O)c23)cc1C	39.7 (≈ 147 µM)
CCc1ccc(Nc2c([N+](=O)[O-])c(=O)oc3ccccc23)cc1	1.4 (≈ 4.51 µM)
c1ccc(CCCc2nc(-c3cccnc3)no2)cc1	30.5 (≈ 115 µM)
CCCCNC(=O)C(=O)Nc1cc2c3c(c1)CCC(=O)N3CCC2	1.5 (≈ 4.55 µM)
CC(=O)c1cccc(NC(=O)c2ccccc2-c2ccccc2C(=O)O)c1	> 53.9
CC(C)c1ccc(Nc2ccc(C(=O)O)cc2[N+](=O)[O-])cc1	> 45
CN(C(=O)COC(=O)c1cncc(Br)c1)C1CCCCC1	> 53.3
O=S(=O)(Nc1ccccn1)c1cccs1	> 36
O=C(Nc1ccccn1)c1ccc(Cl)s1	30.9 (≈ 129 µM)
CC(=O)Nc1ccc(NC(=O)Cc2ccc(-c3ccccc3)cc2)cc1	< 0.4
CC1CCCCC1NC(=S)NC(=O)c1cccs1 (stereo not given)	5.5 (≈ 19.5 µM)
O=C(Nc1ccc2c(c1)OCCO2)c1ccccc1	> 38.3
O=C(O)CN1C(=O)C(=O)N(Cc2ccc(Cl)cc2Cl)C1=O	> 49.7
Cc1cccc(Nc2nc(N)nc(-c3oc4ccccc4c3C)n2)c1	< 0.1
O=C(O)/C=C/C(=O)Nc1c(F)cccc1F	27.1 (≈ 119 µM)
CC(C)(C)C(=O)Nc1cccc(-c2ncon2)c1	> 36.8

More lines, now with the values ahead:

solubility kinetic [µg/mL]	SMILES
> 50.9	CC/C(O)=C1\C(=O)CC(C)(C)CC1=NCCc1nc2ccccc2[nH]1
1.8 (≈ 7 µM)	Nc1ncnc(N2CCc3ccccc32)c1[N+](=O)[O-]
< 0.3	Cc1nc2nc(SCC(=O)c3ccccc3)[nH]c2cc1Br
43.5 (≈ 147 µM)	Cc1cc(C)n(CC(=O)NCc2ccccc2)c(=O)c1C#N
> 62.1	CCN1C(=O)C(=O)N(CC(=O)N(C)CC(=O)Nc2ccccc2C(F)(F)F)C1=O
> 52	COc1cccc(NC(=O)c2ccc3c(c2)CCN3S(C)(=O)=O)c1
> 38.9	C=CCNC(=O)c1cc2cccc(OC)c2oc1=O
> 54.2	CC(N=C1NS(=O)(=O)c2ccccc21)C(=O)NCc1ccc(F)cc1 (stereo not given)
4.7 (≈ 9.55 µM)	O=C1CN(C(=O)COC(=O)c2ccc(Cl)c(S(=O)(=O)N3CCCCC3)c2)c2ccccc2N1
37.4 (≈ 133 µM)	N#Cc1ccccc1NC(=O)c1ccc2c(c1)OCCO2
> 49.3	COc1ccccc1C(=O)OC(C)CN1CCN(C)CC1.Cl (stereo not given)
14.3 (≈ 63.9 µM)	Clc1cccc(CN2CCCCCC2)c1
> 45.5	CC(OC(=O)c1cccs1)C(=O)NCCc1ccccc1 (stereo not given)
> 48.1	COc1ccc(/C=C/C(=O)NCCN2CCOCC2)cc1OC
53.9 (≈ 119 µM)	COc1ccccc1NS(=O)(=O)c1ccc(C(=O)N2CCN(c3ccccn3)CC2)cc1
42.3 (≈ 128 µM)	Cc1ccc2c(C)c(C(=O)NCCN3CCCC(O)C3)oc2c1C (stereo not given)
< 0.7	Cc1ccc(C(=O)Nc2c(C)cc(-c3ccccc3)oc2=O)cc1

solubility kinetic [µg/mL]	SMILES
> 42.1	COc1ccc(NC(=S)NC2CCCC2)c(OC)c1
4 (≈ 12.3 µM)	COc1ccc(-c2nc(NC(C)=O)sc2-c2ccccc2)cc1
< 0.4	COc1ccc(C(=O)Nc2ccccc2NC(=O)c2ccc(OC)cc2)cc1
> 46.7	COc1ccc(NC2CCCN(C(=O)c3cccnc3)C2)cc1 (stereo not given)
40.1 (≈ 137 µM)	CC1CN(C(=O)COC(=O)c2ccccc2O)CC(C)O1 (stereo not given)
> 33.8	O=C(OCc1cncs1)c1cccs1
39.3 (≈ 139 µM)	Cc1ccccc1C(=O)NCCNC(=O)c1ccccn1
39.5 (≈ 114 µM)	CN1CCC(N(C)C(=O)CNC(=O)c2ccc(C(C)(C)C)cc2)CC1
4.2 (≈ 17.3 µM)	c1ccc2c(CN3CCSCC3)cccc2c1
50	CSc1nc(C)c(C(=O)C[n+]2ccc(C)cc2)cc1C#N.[Br-]
34.2 (≈ 112 µM)	CCOc1ncccc1C(=O)OCC(=O)NC1CCCCC1
> 50.3	COc1ccc(CCNC(=O)c2noc(C)c2[N+](=O)[O-])cc1OC
21.1 (≈ 68.9 µM)	CN(CC(=O)Nc1cccc(F)c1)C(=O)CC1CCCCC1
0.9 (≈ 2.57 µM)	O=C(CN1CCc2ccccc2C1)Nc1ccc(OC(F)(F)F)cc1
34.4 (≈ 92 µM)	CN1CCN(c2ccc(Cl)cc2NC(=O)/C=C/c2cccc(F)c2)CC1
8.9 (≈ 33.4 µM)	CO/N=C(/CN1CCCCC1)c1ccc(Cl)cc1
37.3 (≈ 142 µM)	CCOC(=O)c1ccc(C(=S)N2CCCC2)cc1
